# In paper PMC10096175, “An In Vitro Antimicrobial, Anticancer and Antioxidant Activity of N–[(2–Arylmethylthio)phenylsulfonyl]cinnamamide Derivatives” (Molecules, 2023):
# Like-named read-outs stand apart in the source and are kept apart here.
# Columns and labels:
# B. subtilis ATCC 6633 = test: MIC determination, reference strain (microdilution); assay type: cell-based; conditions: Bacillus subtilis, ATCC6633; B. subtilis ATCC 6633; Co-trimoxazole as sulfamethoxazole/trimethoprim; read-out: MIC
# ABTS assay = conditions: ABTS radical scavenging; 10 min, 30 °C
# Experimental: The ABTS assay was performed spectrophotometrically. […] ABTS solution with methanol/DMSO (9/1 v/v) was used as a control. After 10 min of incubation at 30 °C in the dark, the absorbance was analyzed at λ = 750 nm by a 96-well microplate reader (Epoch, BioTek System, Santa Clara, CA, USA). Ascorbic acid was used as a standard.
# ABTS inhibition was calculated by the following equation:ABTS Inhibition (%) = [Acontrol − Asample)/Acontrol] × 100%
# (§1) IC50 values of the samples were calculated using program GraFit v. 7.0 (Erithacus Software). The analysis was performed three times, with tree replications in each (n = 9). Statistical analysis was performed with one-way ANOVA with Tuckey’s post-hoc test.
# SKOV-3 cells = test: MTT assay; assay type: cell-based, human; conditions: for IC50: Homo sapiens, SK-OV-3, SKOV-3, MTT, 24 h treatment, read-out: IC50; for Selectivity index (SI): IC50 HEK-293 / IC50 SKOV-3
# E. coli ATCC 8739 = test: MIC determination, reference strain (microdilution); assay type: cell-based; conditions: Escherichia coli, ATCC8739; E. coli ATCC 8739; Co-trimoxazole as sulfamethoxazole/trimethoprim; read-out: MIC
# MCF-7 cells = test: MTT assay; assay type: cell-based, human; conditions: for IC50: Homo sapiens, MCF7, MCF-7, MTT, 24 h treatment, read-out: IC50; for Selectivity index (SI): IC50 HEK-293 / IC50 MCF-7
# S. aureus ATCC 6538 [1] = test: Blood bacteriostatic activity test in sheep blood; assay type: cell-based, Staphylococcus aureus; conditions: 24 h, 37 °C, t0 1.30 × 10^8, control t24 2.28 × 10^9
# Experimental: The manifestation of the bactericidal properties of chemical compounds is low minimum bactericidal concentration (MBC) values, which allows many groups of researchers to check the killing rate over time (time killing tests). It is an important element in determining the strength and speed of action of a compound on bacteria. Such studies are usually carried out in bacterial media, without additional factors influencing the results.
# This step was carried out on two types of bacteria, S. aureus ATCC 6538 (Figure 8 and Table 2) and S. epidermidis ATCC 14 990 (Figure 9 and Table 3).
# The number of bacteria at the initial time (t0) was 1.30 × 10^8 CFU/mL for S. aureus and 1.70 × 10^7 CFU/mL for S. epidermidis. Live bacterial cells were assayed after 24 h of incubation at 37 °C. […] Bacterial controls without compounds grew unhindered and after 24 h (t24) were 2.28 × 10^9 for S. aureus and 5.10 × 10^8 CFU/mL for S. epidermidis. […] It can be assumed that the tested compounds were not related to any fraction of the blood. Attention should be paid to the S. epidermidis tests and the difference between the number of bacteria at t0 and after 24 h of incubation for each compound. The number of bacteria at t0 was 1.70 × 10^7 CFU/mL and after 24 h it decreased to, e.g., 9.40 × 10^6 CFU/mL for compounds 16e and 7.80 × 10^6 CFU/mL for compound 17c. It can be assumed that the tested compounds after being added to blood samples prevented bacteria from multiplying. However, under these conditions, the phagocytic cells take up the bacteria. […] This can be explained by much greater variety of mechanisms of action of S. aureus against phagocytic cells than of S. epidermidis. This can be integrated with the bacterial cell compounds, e.g., protein A, as well as enzymes that bacteria can secrete outside the cell, e.g., coagulase and staphylokinase. Additional studies should be conducted to check how the tested compounds affect the enzymes secreted by S. aureus.
# The assay was performed as previously described by with a modification. Pure sheep blood was used for the research. Two strains of bacteria S. aureus ATCC 6538 and S. epidermidis ATCC 14990 were used with an inoculum density of approximately 10^8 CFU/mL at 0 time. The final concentration of the compounds was 0.5, 1, 2, 4, and 8 µg/mL, and the final volume of the assay tube was 1 mL. Bacterial survivors were determined on MH agar plates (CFU/mL) at 24 h after exposure.
# HeLa cells = test: MTT assay; assay type: cell-based, human; conditions: for IC50: HeLa, MTT, 24 h treatment; for Selectivity index (SI): IC50 HEK-293 / IC50 HeLa
# [2] = test system: S. epidermidis ATCC 14990; test: MIC determination, reference strain (microdilution); assay type: cell-based; conditions: Staphylococcus epidermidis, ATCC14990; S. epidermidis ATCC 14990; Co-trimoxazole as sulfamethoxazole/trimethoprim; read-out: MIC
# E. hirae ATCC 10541 = test: as above; assay type: cell-based; conditions: Enterococcus hirae, ATCC10541; E. hirae ATCC 10541; Co-trimoxazole as sulfamethoxazole/trimethoprim; read-out: MIC
# C. albicans ATCC 10231 = test: MIC determination, reference fungal strain (microdilution); assay type: cell-based; conditions: Candida albicans, ATCC10231; C. albicans ATCC 10231; read-out: MIC
# HEK-293 cells = test: MTT assay, noncancerous cells; assay type: cell-based; conditions: Homo sapiens, HEK293; HEK-293; MTT, 24 h treatment; read-out: IC50
# DPPH assay = conditions: DPPH radical scavenging; 40 min, room temperature
# Experimental: The DPPH assay was performed spectrophotometrically. The amount of 30 µL of different concentrations of samples, dissolved in methanol/DMSO (9/1 v/v), was mixed with 170 µL of 0.06 mM DPPH methanolic solution and completed with methanol to a final volume of 300 µL. DPPH methanolic solution with methanol/DMSO (9/1 v/v) was used as a control. After 40 min of incubation at room temperature in the dark, the absorbance was analyzed at λ = 510 nm by a 96-well microplate reader (Epoch, BioTek System, Santa Clara, CA, USA). Ascorbic acid was used as a standard.
# DPPH inhibition was calculated by the following equation:DPPH Inhibition (%) = [Acontrol − Asample)/Acontrol] × 100%
# as §1
# S. aureus ATCC 6538 [3] = test: MIC determination, reference strain (microdilution); assay type: cell-based; conditions: Staphylococcus aureus, ATCC6538; S. aureus ATCC 6538; ± SD; Co-trimoxazole as sulfamethoxazole/trimethoprim; read-out: MIC
# C. diphtheriae = test: as above; assay type: cell-based; conditions: Corynebacterium diphtheriae; C. diphtheriae; Co-trimoxazole as sulfamethoxazole/trimethoprim; read-out: MIC
# [4] = Homo sapiens, 24 h, read-out: IC50
Compound,MIC (B. subtilis ATCC 6633) [µg/mL],IC50 ABTS (ABTS assay) [µg/mL],IC50 (SKOV-3 cells) [µg/mL],Selectivity index (SI) (SKOV-3 cells),MIC (E. coli ATCC 8739) [µg/mL],IC50 (MCF-7 cells) [µg/mL],Selectivity index (SI) (MCF-7 cells),Number of viable cells of Staphylococcus aureus (S. aureus ATCC 6538 [1]; 1 µg/mL),Number of viable cells of Staphylococcus aureus (S. aureus ATCC 6538 [1]; 2 µg/mL),Number of viable cells of Staphylococcus aureus (S. aureus ATCC 6538 [1]; 4 µg/mL),Number of viable cells of Staphylococcus aureus (S. aureus ATCC 6538 [1]; 8 µg/mL),IC50 (HeLa cells; [4]) [µg/mL],Selectivity index (SI) (HeLa cells),MIC [2] [µg/mL],MIC (E. hirae ATCC 10541) [µg/mL],MIC (C. albicans ATCC 10231) [µg/mL],IC50 (HEK-293 cells) [µg/mL],IC50 DPPH (DPPH assay) [µg/mL],MIC (S. aureus ATCC 6538 [3]) [µg/mL],MIC (C. diphtheriae) [µg/mL],also measured
"Cc1cc(S(=O)(=O)NC(=O)/C=C/c2ccc(Cl)cc2)c(SCc2cccc3ccccc23)cc1Cl [Compound 16d, (E)–N–{4–Chloro–5–methyl–2–[(naphthalen–1–yl)methylthio]phenylsulfonyl}–3–(4–chlorophenyl)acrylamide]",62.5 ± 0.29,627.81 ± 2.29,7.87 ± 0.03,1.4,> 125,12.8 ± 0.29,0.8,1.88 × 10^8 CFU/mL,1.66 × 10^8 CFU/mL,1.58 × 10^8 CFU/mL,1.27 × 10^8 CFU/mL,< 10,1.1,1 ± 0.29,2 ± 0.58,> 125,10.8 ± 0.4,348.21 ± 0.29,1,> 125,IC50 (HeLa cells): 9.66 ± 0.75 µg/mL
"COc1ccc(/C=C/C(=O)NS(=O)(=O)c2cc(C)c(Cl)cc2SCc2cccc3ccccc23)cc1F [Compound 16e, (E)–N–{4–Chloro–5–methyl–2–[(naphthalen–1–yl)methylthio]phenylsulfonyl}–3–(3–fluoro–4–methoxyphenyl)acrylamide]",62.5 ± 0.29,697.70 ± 0.43,12.2 ± 0.23,0.8,> 125,15.5 ± 0.82,0.6,2.15 × 10^8 CFU/mL,1.27 × 10^8 CFU/mL,1.94 × 10^8 CFU/mL,2.80 × 10^8 CFU/mL,12.3 ± 0.2,0.8,1 ± 0.29,4 ± 0.15,> 125,10 ± 0.23,539.30 ± 0.13,2 ± 0.58,62.5 ± 0.29,–
"Cc1cc(S(=O)(=O)NC(=O)/C=C/c2ccc(Cl)cc2)c(SCc2cc3c(cc2Cl)OCO3)cc1Cl [Compound 17c, (E)–N–{4–Chloro–2–[(6–chlorobenzo[d][1,3]dioxol–5–yl)methylthio]–5–methylphenylsulfonyl}–3–(4–chlorophenyl)acrylamide]",62.5 ± 0.29,496.63 ± 0.48,12 ± 1.07,1.2,> 125,11.6 ± 0.91,1.2,2.24 × 10^8 CFU/mL,1.09 × 10^8 CFU/mL,2.02 × 10^8 CFU/mL,9.35 × 10^7 CFU/mL,11.2 ± 0.7,1.3,1 ± 0.29,2 ± 0.58,> 125,14.6 ± 0.58,1077.66 ± 0.42,1 ± 0.29,> 125,–
